Data taken from patent US20190233884A1 (University of Southern California, priority 2016, published 2019).

System: patients with refractory metastatic colorectal cancer (mCRC)
Assay: TAS-102-related toxicity (neutropenia, leukopenia, anemia, anorexia, nausea, diarrhea; CTCAE grade) in training/evaluation and testing/validation cohorts, association with SNPs
Format: in vivo, human
Details: for frequency of Gr3≤ neutropenia: evaluation cohort; for incidence of Gr3≤ neutropenia: validation cohort
From the text: Such effects include but are not limited to febrile neutropenia, leukopenia, stomatitis, neutropenia, hand-foot syndrome, cardiac ischemia, thrombocytopenia, increase in alanine aminotransferase level, increase in aspartate aminotransferase level, increase in total bilirubin, increase in alkaline phosphatase level, increase in creatinine level, anemia, anorexia, nausea, vomiting, decreased appetite, fatigue, abdominal pain, fever, asthenia, and diarrhea. […] “Subchronic” toxicity is the ability of a drug substance to cause harmful or adverse effects for […] but less than the lifetime of the exposed organism. “Chronic” toxicity is the ability of a drug substance or combination therapy to cause harmful effects over an extended period, usually upon repeated or continuous exposure, sometimes lasting for the entire life of the exposed organism. Adverse events are classified and graded by severity. Grade 1 adverse events: mild; asymptomatic or mild symptoms; clinical or diagnostic observations only; intervention not indicated. Grade 2 adverse events: moderate; minimal, local or noninvasive intervention indicated; limiting age-appropriate instrumental activities of daily living (ADL). Grade 3 adverse events: severe or medically significant but not immediately life-threatening; hospitalization or prolongation of hospitalization indicated; disabling; limiting self care activities of daily living. Grade 4 adverse events: life-threatening consequences; urgent intervention indicated. Grade 5 adverse event: death related to AE (Department of Health and Human Services, National Institutes of Health, National Cancer Institute. Common terminology criteria for adverse events (CTCAE) v4.03. 2010).
The primary endpoint in this study was progression-free survival (PFS), and the secondary endpoints were overall survival (OS) and disease control rate (DCR). PFS was calculated from the date of starting treatment to the first observation of disease progression or death from any cause. If a patient had no disease progression or death, PFS was censored at the date of last follow up. OS was calculated from the date of starting treatment until the date of death from any cause or the date of the last follow-up, at which point OS was censored. The disease control rate (DCR) was defined as the proportion of patients who achieved a stable disease (SD) or […] according to RECISTv1.1. Chi-square test was used to examine the difference in baseline patient characteristics among the three cohorts. Allelic distribution of all SNPs by ethnicity for deviation from Hardy-Weinberg equilibrium and the allelic frequencies of SNPs were tested using the Chi-square tests with one degree of freedom. The associations between candidate SNPs and disease control, and toxicities were examined using contingency tables and Fisher's exact test. The associations of SNPs with PFS and OS were analysed using Kaplan-Meier curves and the log-rank test. Because the true mode of inheritance of candidate SNPs was not established yet, a codominant or dominant genetic model if appropriate was considered.
All patients underwent the treatment in salvage-line setting. […] In all patients, adverse events were graded according to the Common Terminology Criteria for Adverse Events, version 4.0.
The primary endpoint in this study was progression-free survival (PFS), and the secondary endpoints were overall survival (OS) and disease control rate (DCR). […] Data of patients without disease progression or death were censored at the date of last follow up. OS was calculated from the date of starting treatment until the date of death from any cause. In patients who were lost to follow-up, data were censored at the date of last follow up. The disease control rate (DCR) was defined as the proportion of patients who achieved a stable disease (SD) or […] according to RECIST v1.1.

Trifluridine/tipiracil [TAS-102] was tested, and the “frequency of Gr3≤ neutropenia” value (ATM rs609429 C/C (n=4/14)) was 29%, the “frequency of Gr3≤ neutropenia” value (ATM rs609429 any G allele (n=16/38)) was 42% and the “incidence of grade 2≤ neutropenia” value (training cohort) was 61.5%. The “incidence of grade 3≤ neutropenia” value (training cohort) was 38.5%, the “frequency of Gr2< neutropenia” value (training cohort, hENT1 rs760370 A/A (n=12/27)) was 44% and the “frequency of Gr2< neutropenia” value (training cohort, hENT1 rs760370 any G allele (n=20/25)) was 80%. For the same substance, the “treatment delay caused by neutropenia” value (training cohort, share of treatment delays (22/24)) was 91.8%, the “incidence of Gr3≤ neutropenia” value (ATM rs609429 C/C (n=13/51)) was 26% and the “incidence of Gr3≤ neutropenia” value (ATM rs609429 any G allele (n=34/78)) was 44%.
